The source of these data is US7683061B2, “Triazine dimers for the treatment of autoimmune diseases” (ProMetic BioSciences Inc., priority 2003, dated 2010).

Test [1] has as its system TNFα production, J774A-1 cells. Description: LPS-induced TNFα production in J774A-1 cells (ELISA). It counts as cell-based. The following applies: Mus musculus, J774.A1, 24 h, read-out: IC50 (μM), inhibition of TNFα released by LPS induction. The gist of the method: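 J774-1 macrophages were cultured with or without LPS and compound at 37° C for 24 h. TNFα in supernatants measured by ELISA; IC50 is the concentration inhibiting 50% of TNFα production.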
A general note: ELISA stands for enzyme-linked immunosorbent assay.

Test [2] deals with TNFα / p55 TNFα receptor (CD120a) (Homo sapiens, UniProt P01375). Put plainly: Binding ELISA: TNF-α binding to plastic coated TNF-R1. The note with it: for inhibition at 100 µM: 10^−4 M; for inhibition at 10 µM: 10^−5 M. The procedure:
Compounds were tested for their ability to bind to TNFα or inhibit the interaction of TNFα with its respective receptors; p55 and p75 TNFα receptor. Three binding ELISA assays were undertaken as described by Mancini et al. Biochemical Pharmacology 58, 851-859 (1999). TNFα or receptor (1 μg/mL) was coated on a 96-well plate Maxisorp, overnight at 4° C. After incubation, unbound TNFα or p55 TNFα receptor or p75 TNFα receptor was removed and the plate washed three times with PBS. The plate was then incubated with 100 μL/well of a 2% BSA solution for 1 h at 37° C. to block non specific protein binding. After incubation, the plate was washed three times with PBS. Biotinylated recombinant human TNFα p55 or p75 receptor or biotinylated recombinant human TNFα was added to the wells in the presence or absence of compounds. The plate was incubated for 1 h at 37° C. After incubation, the plate was washed three times with PBS to remove unbound labeled p55 or p75 receptor or recombinant human TNFα. 100 μL of avidin-HRP (diluted 1/2000 in PBS-0.1% BSA) was added to each well and incubated 1 h at 37° C. Bound p55 or p75 receptor or recombinant human TNFα was detected by the addition of 200 μL of 3,3′,5,5′-tetramethylbenzidine (TMB) per well for 15 min. The plate was then read at 655 nm on a EL 800 universal Microplate reader (Bio-Tek, Mississauga, Canada). Data was analyzed in Microsoft Excel and recorded as the percentage of inhibition of p55 or p75 binding to TNFα or TNFα binding to RI (p55) or RII (p75).

The target in test [3] is T1, Fc portion of human IgG (binding of protein A to human IgG).
T1 construct: fused on or other part: Horseradish peroxidase chemically conjugated to the IgG (HRP-IgG)
Put plainly: Competitive protein A binding ELISA. A digest of the protocol:
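Protein A coated overnight at 4 °C and blocked with 2% BSA. Compound, diluted in PBS or PBS-20% DMSO, competed with HRP-conjugated human IgG for 1 h at 37 °C. Bound IgG detected with ABTS at 405 nm; IC50 is the concentration inhibiting 50% of protein A binding.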

Test [4] relates to peripheral blood mononuclear leukocytes (PBML). Description: PBML RNA synthesis (uridine). The test is classed as cell-based, human. The following applies: for IC50: Homo sapiens, Leukocyte; for effect on RNA synthesis (in words): resting and stimulated (ConA and PWM) PBML. From the text: PBML were obtained from the peripheral blood of healthy volunteers. Blood was submitted to gradient centrifugation with Lympholyte-poly (Cedarlane, Hornby, Canada). The layer, which contains the mononuclear leukocytes, was collected and the cells washed three times in PBS. Cells were then suspended in RPMI (Gibco, Burlington, Canada) supplemented with […] (cyclone, Logan USA). Viability was greater than 99% as determined by trypan blue exclusion.
PBML were resuspended at 2×10^6 cells mL. 100 μL of PBML (2×10^5 cells) were incubated in a 96-well microtiter plate for 48 h in the presence or absence of compound or protein A. Cells were quiescent or stimulated with concanavalin A (ConA; T-cells) or pokeweed mitogen (PWM; B-cells). After incubation, cells were treated with MTT (cytotoxicity) or pulsed with 1 μCi of [^3]-thymidine (DNA synthesis), [^3H]-uridine (RNA synthesis) or [^3]-leucine (protein synthesis) for 6 h. Plates were harvested on a Tomteck and counted on a Microbeta β-counter.

For test [5], the system named is female Lewis rats, adjuvant-induced arthritis. Put plainly: Freund's adjuvant-induced arthritis (AIA). The test is classed as in vivo. The note with it: for reduction of the inflammatory index: intravenous days −3, −2, −1, 12, 13, 14, 18, 19 and 20, from day 3 to day 5, FIG. 10. From the text:
AIA was induced in female Lewis rats by the injection of lyophilized Mycobacterium butyricum suspended in mineral oil into the footpad. The development of aridity was monitored over a 3 weeks period post-adjuvant injection, inflammation peaks at day 3 following the adjuvant administration. Immune activation appears around day 14. Compounds were orally or intravenously administered at different doses at day −3, −2 and −1 pre-adjuvant injection and at different regimen as specified in the exponent starting from day 10 through 21 post-adjuvant injection or animals were treated with oral admiration of compound 19a from day −3 to day 21. Body weight was recorded. The arthritis index, which is a measure of inflammation (oedema), redness and stiffness of the articulations, was used to monitor the development of the disease. The degree of arthritis was determined by measuring two perpendicular diameters of the ankles in the mediolateral and dorsoventral planes using a caliper. Joint circumference in millimeters is then calculated using a geometric formula. Both the incidence and severity of the arthritis was evaluated. Incidence is defined as the number of rats with clinical evidence of joint inflammation during the study period.

Where [6] appears, read: Table 1, PBS-20% DMSO, read-out: IC50 (μM): Assay in PBS-20% DMSO.

Like-named read-outs stand apart in the source and are kept apart here.

Sequence of TNFα / p55 TNFα receptor (CD120a) (P01375 77-233 limits assumed): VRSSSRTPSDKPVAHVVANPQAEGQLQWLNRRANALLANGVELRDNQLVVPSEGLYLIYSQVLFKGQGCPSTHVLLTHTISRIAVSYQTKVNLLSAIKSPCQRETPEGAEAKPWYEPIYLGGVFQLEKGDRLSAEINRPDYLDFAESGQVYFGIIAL

Turning to `Oc1ccc(CCNc2nc(NCCNc3nc(NCCc4ccc(O)cc4)nc(Nc4ccccc4)n3)nc(Nc3ccccc3)n2)cc1` [Compound 1], the IC50 – broadly, the concentration that inhibits the measured activity by half – in test [1] came out at 9.2 µM; in test [3] (setting [6]), 50 µM; in test [4] (ConA stimulated PBML), 920 nM; in test [4] (PWM stimulated PBML), 660 nM; in test [4] (Resting PBML), 1100 nM. For the same compound, the inhibition – broadly, the relative decrease from the control value, in per cent – at 100 µM in test [2] was 46%. The inhibition at 10 µM in test [2] stood at 28.9%. Further, in test [4], the “effect on RNA synthesis (in words)” value was “suppress”. Further, the “reduction of the inflammatory index” value in test [5] is 20%.
As for `Nc1ccc(CCNc2nc(Nc3ccc(CCNc4nc(NCCO)nc(Nc5cccc(N)c5)n4)cc3)nc(Nc3cccc(N)c3)n2)cc1` [Compound 19a], the IC50 in test [1] came to 20.7 µM; in test [3] (setting [6]), 0.003 µM; in test [3] (Table 1, PBS, read-out: IC50 (μM): Assay in PBS) it was 0.06 µM; in test [3] (Table 2, PBS-20% DMSO, n = 5 or 6, read-out: IC50 (n = 5 or 6) PBS-20% DMSO), 0.0035 µM; in test [3] (Table 2, PBS, n = 5 or 6, read-out: IC50 (n = 5 or 6) PBS), 0.088 µM; in test [4] (ConA stimulated PBML), 693 nM. Further, the 50% inhibitory concentration (IC50) in test [4] (PWM stimulated PBML) worked out at 398 nM; in test [4] (Resting PBML), 399 nM. Also, in test [2], the inhibition at 100 µM amounted to 13.3%. Moreover, in test [2], the inhibition at 10 µM was -4%. In addition, in test [4], the “effect on RNA synthesis (in words)” value is recorded as “suppress”. The “inhibition of chronic inflammation (days 12 to 21)” value is “strong and significant inhibition of inflammation” in test [5] (IV, days 12 to 19); “strong and significant inhibition of inflammation” in test [5] (PO, day 16). The “reduction of the inflammatory index” value in test [5] came out at 20%. Further, the inhibition of inflammation entry in test [5] (oral administration, acute inflammation, compared to the control and methotrexate) was “significant inhibition of inflammation”; in test [5] (orally every day (days −3 to 21), from day 13 through day 22, FIG. 12), “up to 50%”.
